By IC50 is commonly meant the midpoint of a concentration-inhibition curve.

The values that follow come from patent US20220315554A1, “COMPOUNDS COMPRISING A […] LIGAND AND USE THEREOF” (priority 2019, published 2022).

SMILES strings stand for the structures. Numbered stars: 1 amine (or outer) side, 2 acyl side, 3 side chain; on linkers, the order of the positions; unused ones are H or OH. Bridge positions count the residues as written; N and C are the ends. Square brackets hold non-standard residues; d marks the D form. Peptide text beside a SMILES is read from it. * marks the point of attachment. TBMB(SCH2CH2NH-DOTA) = O=C(O)CN1CCN(CC(=O)O)CCN(CC(=O)NCCSCc2cc(C[*:1])cc(C[*:2])c2)CCN(CC(=O)O)CC1; X5 = O=C(O)CN1CCN(CC(=O)O)CCN(CC(=O)NCCSCc2cc(CSC[C@@H](CO)N[*:2])cc(C[*:1])c2)CCN(CC(=O)O)CC1; X1 = O=C(O)CN1CCN(CC(=O)O)CCN(CC(=O)N2CCN(Cc3cc(C[*:1])cc(C[*:2])c3)CC2)CCN(CC(=O)O)CC1; X52 = NCCOCCOCC(=O)N1CCN(Cc2cc(C[*:1])cc(C[*:2])c2)CC1; X39 = NCCOCCOCC(=O)NCCSCc1cc(C[*:1])cc(C[*:2])c1; Pyridine(3,5-bisCH2) = c1ncc(C[*:2])cc1C[*:1]; mXylylene = c1cc(C[*:1])cc(C[*:2])c1; X25 = NCCSCc1cc(C[*:1])cc(C[*:2])c1; X41 = NCCCCCC(=O)NCCCOCCOCCOCCCN*; Suc = O=C(CCC(=O)[*:2])[*:1]; Nle = CCCC[C@H](N)C(=O)O; Hexanoyl = CCCCCC(=O)*; Sar = CNCC(=O)O

One assay deals with T1, Human recombinant FAP (Homo sapiens, UniProt Q12884).
T1 sequence (Q12884 1-760): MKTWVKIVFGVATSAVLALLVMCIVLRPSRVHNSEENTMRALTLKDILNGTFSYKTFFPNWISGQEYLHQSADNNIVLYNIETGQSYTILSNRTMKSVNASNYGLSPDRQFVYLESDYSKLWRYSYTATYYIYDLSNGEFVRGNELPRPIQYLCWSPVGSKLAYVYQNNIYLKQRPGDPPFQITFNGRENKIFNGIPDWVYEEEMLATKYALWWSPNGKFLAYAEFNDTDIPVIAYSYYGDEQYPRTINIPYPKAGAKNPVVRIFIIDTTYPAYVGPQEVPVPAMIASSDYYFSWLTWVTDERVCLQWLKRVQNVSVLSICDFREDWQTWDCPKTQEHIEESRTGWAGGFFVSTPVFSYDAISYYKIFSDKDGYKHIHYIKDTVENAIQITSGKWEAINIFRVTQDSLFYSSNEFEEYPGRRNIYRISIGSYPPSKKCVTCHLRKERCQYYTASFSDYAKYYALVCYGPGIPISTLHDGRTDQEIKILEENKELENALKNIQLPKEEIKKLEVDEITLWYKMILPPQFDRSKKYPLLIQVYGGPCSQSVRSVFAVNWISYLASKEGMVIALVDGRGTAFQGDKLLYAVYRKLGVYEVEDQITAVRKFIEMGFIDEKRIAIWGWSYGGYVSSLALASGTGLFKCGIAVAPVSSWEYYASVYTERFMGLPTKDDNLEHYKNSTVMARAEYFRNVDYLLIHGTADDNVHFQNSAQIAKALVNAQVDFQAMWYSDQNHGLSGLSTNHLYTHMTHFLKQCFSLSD
The assay can be described thus: FRET-based FAP protease activity assay. Details: purchased R&D systems 3715-SE. It counts as biochemical. Conditions: pIC50 Category (Activity), FRET substrate, 37° C.

Assay [1] deals with T2, FAP-expressing human WI-38 fibroblasts (Homo sapiens, UniProt Q12884).
T2 construct: FAP-expressing human WI-38 fibroblasts (ECACC) were cultured in EMEM; host or cells: WI-38 human fibroblasts
T2 sequence (Q12884 1-760): T1 sequence (Q12884 1-760)
In words: Competitive FACS binding assay. Conditions: competition with 3 nM Cy5-labeled compound, 4° C., 1 hour; for IC50: pIC50 Category (FACS). The protocol: Cells were analyzed in an Attune NxT flow cytometer. […]

Regarding `CCCCCC(=O)N[C@H]1CSCc2cncc(c2)CSC[C@@H](C(=O)N[C@@H](CC(=O)O)C(N)=O)NC(=O)[C@H](Cc2ccccc2)NC(=O)[C@H](CCC(N)=O)NC(=O)[C@H]([C@@H](C)O)NC(=O)[C@@H]2CCCN2C(=O)[C@@H]2CCCN2C1=O` [3BP-3519, Hex-[Cys(3Lut)-Pro-Pro-Thr-Gln-Phe-Cys]-Asp-NH2] (Hexanoyl-CPPTQFCD-NH2; linker 1-7 via Pyridine(3,5-bisCH2)), the concentration for half-maximal inhibition (IC50) (on Human recombinant FAP (recombinant human FAP); in assay [1] (WI-38 fibroblasts)) was less than 10 nM throughout.
For the compound `CCCCCC(=O)N[C@H]1CSCc2cc(cc(CN3CCN(C(=O)CN4CCN5CCN6CCN(CC4)CC(=O)[O][Eu]([O]C(=O)C6)[O]C(=O)C5)CC3)c2)CSC[C@@H](C(=O)N[C@@H](CC(=O)O)C(N)=O)NC(=O)[C@H](Cc2ccccc2)NC(=O)[C@H](CCC(N)=O)NC(=O)[C@H]([C@@H](C)O)NC(=O)[C@@H]2CCCN2C(=O)[C@@H]2CCCN2C1` [3BP-3661, Europium-Complex of Hex-[Cys(tMeBn(DOTA-PP))-Pro-Pro-Thr-Gln-Phe-Cys]-Asp-NH2], the IC50 (at Human recombinant FAP; in assay [1]) was less than 10 nM in each case.
`CCCCCC(=O)N[C@H]1CSCc2cc(CSCCNC(=O)CN3CCN4CCN5CCN(CC3)CC(=O)[O][Eu]([O]C(=O)C4)[O]C(=O)C5)cc(c2)CSC[C@@H](C(=O)O)NC(=O)[C@H](Cc2ccccc2)NC(=O)[C@H](CCC(N)=O)NC(=O)[C@H]([C@@H](C)O)NC(=O)[C@@H]2CCCN2C(=O)[C@@H]2CCCN2C1` [3BP-3662, Europium-Complex of Hex-[Cys(tMeBn(DOTA-AET))-Pro-Pro-Thr-Gln-Phe-Cys]-OH]: the IC50 (on Human recombinant FAP; in assay [1]) was less than 10 nM throughout.
Take `CCCCCC(=O)N[C@H]1CSCc2cc(CSCCNC(=O)CN3CCN(CC(=O)O)CCN(CC(=O)O)CCN(CC(=O)O)CC3)cc(c2)CSC[C@@H](C(=O)O)NC(=O)[C@H](Cc2cccnc2)NC(=O)[C@H](CCC(N)=O)NC(=O)[C@H]([C@@H](C)O)NC(=O)[C@@H]2CCCN2C(=O)[C@@H]2CCCN2C1` [3BP-3664, Hex-[Cys(tMeBn(DOTA-AET))-Pro-Pro-Thr-Gln-Mpa-Cys]-OH]: the IC50 (at Human recombinant FAP; in assay [1]) was less than 10 nM throughout.
Turning to `CCCCCS(=O)(=O)N[C@H]1CSCc2cc(CSCCNC(=O)CN3CCN(CC(=O)O)CCN(CC(=O)O)CCN(CC(=O)O)CC3)cc(c2)CSC[C@@H](C(=O)O)NC(=O)[C@H](Cc2ccccc2)NC(=O)[C@H](CCC(N)=O)NC(=O)[C@H]([C@@H](C)O)NC(=O)[C@@H]2CCCN2C(=O)[C@@H]2CCCN2C1=O` [3BP-3691, Pentyl-SO2-[Cys(tMeBn(DOTA-AET))-Pro-Pro-Thr-Glu-Phe-Cys]-OH], the IC50 at Human recombinant FAP was 10 to 79.4 nM. Further, the “pIC50 Category (FACS)” value in assay [1] was “A (pIC50 values >8.0)”.
Consider `CCCCCC(=O)N[C@H]1CSCc2cc(CSCCNC(=O)CN3CCN(CC(=O)O)CCN(CC(=O)O)CCN(CC(=O)O)CC3)cc(c2)CSC[C@@H](C(N)=O)NC(=O)[C@H](Cc2ccccc2)NC(=O)[C@H](CCC(N)=O)NC(=O)[C@H]([C@@H](C)O)NC(=O)[C@@H]2CCCN2C(=O)CN(C)C1=O` [3BP-3744, Hex-[Cys(tMeBn(DOTA-AET))-Nmg-Pro-Thr-Gln-Phe-Cys]-NH2] (Hexanoyl-C[Sar]PTQFC-NH2; linker 1-7 via TBMB(SCH2CH2NH-DOTA)), for which the 50% inhibitory concentration (IC50) (on Human recombinant FAP; in assay [1]) was less than 10 nM in each case.
Take `CCCCCC(=O)N[C@H]1CSCc2cc(CSCCNC(=O)CN3CCN(CC(=O)O)CCN(CC(=O)O)CCN(CC(=O)O)CC3)cc(c2)CSC[C@@H](CO)NC(=O)[C@H](Cc2ccccc2)NC(=O)[C@H](CCC(N)=O)NC(=O)[C@H]([C@@H](C)O)NC(=O)[C@@H]2CCCN2C(=O)[C@@H]2CCCN2C1=O` [3BP-3762, Hex-[Cys(tMeBn(DOTA-AET))-Pro-Pro-Thr-Gln-Phe-Cysol]] (Hexanoyl-CPPTQF; linker 1-C via X5): the half-maximal inhibitory concentration (IC50) on Human recombinant FAP was 100 to 794 nM; in assay [1] it was more than 1000 nM.
The like results for `CCCCCC(=O)N[C@H]1CSCc2cc(CSCCNC(=O)CN3CCN(CC(=O)O)CCN(CC(=O)O)CCN(CC(=O)O)CC3)cc(c2)CSC[C@@H](CO)NC(=O)[C@H](Cc2ccccc2)NC(=O)[C@H](CCC(N)=O)NC(=O)[C@H]([C@@H](C)O)NC(=O)[C@@H]2CCCN2C(=O)[C@@H]2CCCN2C1=O` [3BP-3767, Hex-[Cys(tMeBn(DOTA-AET))-Pro-Pro-Thr-Gln-Phe-Cysol]] (Hexanoyl-CPPTQF; linker 1-C via X5) were, in that order, less than 10 nM and less than 10 nM.
The like results for `CCCCCC(=O)N[C@H]1CSCc2cc(cc(CN3CCN(C(=O)CN4CCN5CCN6CCN(CC4)CC(=O)[O][In]([O]C(=O)C6)[O]C(=O)C5)CC3)c2)CSC[C@@H](C(=O)O)NC(=O)[C@H](Cc2ccccc2)NC(=O)[C@H](CCC(N)=O)NC(=O)[C@H]([C@@H](C)O)NC(=O)[C@@H]2CCCN2C(=O)[C@@H]2CCCN2C1=O` [3BP-3770, Hex-[Cys(tMeBn(InDOTA-PP))-Pro-Pro-Thr-Gln-Phe-Cys]-OH] were, in that order, less than 10 nM and less than 10 nM.
`CCCCCC(=O)N[C@H]1CSCc2cc(cc(CN3CCN(C(=O)CN4CCN(CC(=O)O)CCN(CC(=O)O)CCN(CC(=O)O)CC4)CC3)c2)CSC[C@@H](C(=O)O)NC(=O)[C@H](Cc2ccccc2)NC(=O)[C@H](CCC(N)=O)NC(=O)[C@H]([C@@H](C)O)NC(=O)[C@@H]2CCCN2C(=O)CN(C)C1=O` [3BP-3771, Hex-[Cys(tMeBn(DOTA-PP))-Nmg-Pro-Thr-Gln-Phe-Cys]-OH] (Hexanoyl-C[Sar]PTQFC-OH; linker 1-7 via X1): the IC50 (at Human recombinant FAP; in assay [1]) was less than 10 nM throughout.
Take `CCCCCC(=O)N[C@H]1CSCc2cc(cc(CN3CCN(C(=O)COCCOCCN)CC3)c2)CSC[C@@H](C(=O)N[C@@H](CC(=O)O)C(N)=O)NC(=O)[C@H](Cc2ccccc2)NC(=O)[C@H](CCC(N)=O)NC(=O)[C@H]([C@@H](C)O)NC(=O)[C@@H]2CCCN2C(=O)[C@@H]2CCCN2C1=O` [3BP-3967, Hex-[Cys-(tMeBn(H-O2Oc-PP))-Pro-Pro-Thr-Gln-Phe-Cys]-Asp-NH2] (Hexanoyl-CPPTQFCD-NH2; linker 1-7 via X52): the IC50 (on Human recombinant FAP; in assay [1]) was less than 10 nM each time.
For the compound `CCCC[C@H](NC(=O)CCC(=O)NCCCOCCOCCOCCCNC(=O)CCCCCN)C(=O)N[C@H]1CSCc2cccc(c2)CSC[C@@H](C(=O)N[C@@H](CC(=O)O)C(N)=O)NC(=O)[C@H](Cc2ccccc2)NC(=O)[C@H](CCC(N)=O)NC(=O)[C@H]([C@@H](C)O)NC(=O)[C@@H]2CCCN2C(=O)[C@@H]2CCCN2C1=O` [3BP-3980, H-Ahx-Ttds-Nle-[Cys-(3MeBn)-Pro-Pro-Thr-Gln-Phe-Cys]-Asp-NH2] ({X41-Suc}-[Nle]CPPTQFCD-NH2; linker 2-8 via mXylylene), the IC50 (on Human recombinant FAP; in assay [1]) was less than 10 nM in each case.
`CCCCCC(=O)N[C@H]1CSCc2cc(CSCCN)cc(c2)CSC[C@@H](C(=O)N[C@@H](CC(=O)O)C(N)=O)NC(=O)[C@H](Cc2ccccc2)NC(=O)[C@H](CCC(N)=O)NC(=O)[C@H]([C@@H](C)O)NC(=O)[C@@H]2CCCN2C(=O)[C@@H]2CCCN2C1=O` [3BP-3981, Hex-[Cys-(tMeBn(H-AET))-Pro-Pro-Thr-Gln-Phe-Cys]-Asp-NH2] (Hexanoyl-CPPTQFCD-NH2; linker 1-7 via X25): the half-inhibitory concentration (IC50) at Human recombinant FAP was less than 10 nM; in assay [1] it was 10 to 79.4 nM.
The like results for `CCCCCC(=O)N[C@H]1CSCc2cc(CSCCNC(=O)COCCOCCN)cc(c2)CSC[C@@H](C(=O)N[C@@H](CC(=O)O)C(N)=O)NC(=O)[C@H](Cc2ccccc2)NC(=O)[C@H](CCC(N)=O)NC(=O)[C@H]([C@@H](C)O)NC(=O)[C@@H]2CCCN2C(=O)[C@@H]2CCCN2C1=O` [3BP-4003, Hex-[Cys-(tMeBn(H-O2Oc-AET))-Pro-Pro-Thr-Gln-Phe-Cys]-Asp-NH2] (Hexanoyl-CPPTQFCD-NH2; linker 1-7 via X39) were, in that order, less than 10 nM and less than 10 nM.
`CCCC[C@H](NC(=O)CCC(=O)NCCCOCCOCCOCCCNC(=O)CCCCCN)C(=O)N[C@H]1CSCc2cc(cc(CN3CCN(C(=O)CN4CCN(CC(=O)O)CCN(CC(=O)O)CCN(CC(=O)O)CC4)CC3)c2)CSC[C@@H](C(=O)N[C@@H](CC(=O)O)C(N)=O)NC(=O)[C@H](Cc2ccccc2)NC(=O)[C@H](CCC(N)=O)NC(=O)[C@H]([C@@H](C)O)NC(=O)[C@@H]2CCCN2C(=O)[C@@H]2CCCN2C1=O` [3BP-4004, H-Ahx-Ttds-Nle-[Cys-(tMeBn(DOTA-PP))-Pro-Pro-Thr-Gln-Phe-Cys]-Asp-NH2] ({X41-Suc}-[Nle]CPPTQFCD-NH2; linker 2-8 via X1): the half-maximal inhibitory concentration (IC50) at Human recombinant FAP was less than 10 nM; in assay [1], 10 to 79.4 nM.
